Laboratory results: PubChem BioAssay (NCI)
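The concentration for 50% growth inhibition is given as GI50. TGI denotes the concentration required for complete inhibition of growth.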

Assays:
Assay in all cases: NCI anticancer screen, dose series, 384-well format
[1] = system: NCI-H460 NSCLC
[2] = system: LOX IMVI melanoma
[3] = system: DU-145 prostate
[4] = system: SNB-19 CNS
[5] = system: UACC-62 melanoma
[6] = system: OVCAR-3 ovarian
[7] = system: A549 NSCLC
[8] = system: M14 melanoma
[9] = system: U251 glioblastoma
[10] = system: SF-268 CNS
[11] = system: COLO 205 colon
[12] = system: HS 578T breast
[13] = system: MOLT-4 leukemia
[14] = system: SR leukemia
[15] = system: RXF 393 renal
[16] = system: BT-549 breast
[17] = system: SK-OV-3 ovarian
[18] = system: OVCAR-8 ovarian
[19] = system: EKVX NSCLC
[20] = system: MDA-MB-468 breast
[21] = system: PC-3 prostate
[22] = system: CAKI-1 renal
[23] = system: HL-60(TB) leukemia
[24] = system: SK-MEL-5 melanoma
[25] = system: MCF7 breast
[26] = system: SNB-75 CNS
[27] = system: NCI-H322M lung
[28] = system: ACHN renal
[29] = system: HT29 colon
[30] = system: HCC-2998 colon
[31] = system: A498 renal
[32] = system: NCI-H226 lung
[33] = system: RPMI-8226 leukemia
[34] = system: SK-MEL-28 melanoma
[35] = system: MDA-MB-231 breast
[36] = system: HCT-116 colon
[37] = system: NCI-H23 lung
[38] = system: HOP-92 NSCLC
[39] = system: MALME-3M melanoma
[40] = system: KM12 colon
[41] = system: NCI-H522 lung
[42] = system: HCT-15 colon
[43] = system: UACC-257 melanoma
[44] = system: SN12C renal

In the case of `CCn1c(-c2nonc2N)nc2c(C#CC(C)(C)O)ncc(OC[C@H]3CCCNC3)c21`, the GI50 [1] is reported as 0.195 µM, the TGI [1] is reported as 11 µM and the GI50 [2] is reported as 1.05 µM. The TGI [2] was 8.42 µM, the GI50 [3] was 0.0938 µM and the TGI [3] was 13.8 µM. For the same compound, the GI50 [4] was 0.495 µM, the TGI [4] was 15.2 µM and the GI50 [5] was 0.22 µM. The TGI [5] was 16.8 µM, the GI50 [6] was 0.198 µM and the TGI [6] was 15.2 µM. The GI50 [7] was 4.15 µM, the TGI [7] was 22.7 µM and the GI50 [8] was less than 0.01 µM. The TGI [8] was less than 0.01 µM, the GI50 [9] was 1.08 µM and the TGI [9] was 14.4 µM. For the same compound, the GI50 [10] was 6.19 µM, the TGI [10] was 20.2 µM and the GI50 [11] was 0.116 µM. For the same compound, the TGI [11] was 12.1 µM, the GI50 [12] was less than 0.01 µM and the TGI [12] was 14.2 µM. The GI50 [13] was less than 0.01 µM, the TGI [13] was less than 0.01 µM and the GI50 [14] was less than 0.01 µM. The TGI [14] was less than 0.01 µM, the GI50 [15] was less than 0.01 µM and the TGI [15] was 19.2 µM. The GI50 [16] was less than 0.01 µM, the TGI [16] was 2.13 µM and the GI50 [17] was 0.0422 µM. The TGI [17] was 12.7 µM, the GI50 [18] was less than 0.01 µM and the TGI [18] was 17.6 µM. It also gave a GI50 [19] of 4.79 µM, a TGI [19] of 26.5 µM and a GI50 [20] of 0.099 µM. It also gave a TGI [20] of 19.6 µM, a GI50 [21] of 0.0846 µM and a TGI [21] of 14.2 µM. The GI50 [22] was 0.411 µM, the TGI [22] was 16.7 µM and the GI50 [23] was less than 0.01 µM. It also gave a TGI [23] of 0.101 µM, a GI50 [24] of less than 0.01 µM and a TGI [24] of 0.19 µM. For the same compound, the GI50 [25] was 0.0267 µM, the TGI [25] was 16.6 µM and the GI50 [26] was 0.216 µM. The TGI [26] was 17.1 µM, the GI50 [27] was 0.0268 µM and the TGI [27] was 18.4 µM. The GI50 [28] was less than 0.01 µM, the TGI [28] was 0.129 µM and the GI50 [29] was 0.199 µM. It also gave a TGI [29] of 16.5 µM, a GI50 [30] of less than 0.01 µM and a TGI [30] of 0.0209 µM. The GI50 [31] was less than 0.01 µM, the TGI [31] was less than 0.01 µM and the GI50 [32] was 4.62 µM. The TGI [32] was 18.5 µM, the GI50 [33] was less than 0.01 µM and the TGI [33] was 0.283 µM. It also gave a GI50 [34] of 4.69 µM, a TGI [34] of 20.4 µM and a GI50 [35] of 2.62 µM. It also gave a TGI [35] of 16.7 µM, a GI50 [36] of 1.47 µM and a TGI [36] of 17.7 µM. For the same compound, the GI50 [37] was less than 0.01 µM, the TGI [37] was 13.6 µM and the GI50 [38] was less than 0.01 µM. It also gave a TGI [38] of 21.7 µM, a GI50 [39] of 0.183 µM and a TGI [39] of 17.6 µM. For the same compound, the GI50 [40] was 0.018 µM, the TGI [40] was 14.4 µM and the GI50 [41] was 1.25 µM. It also gave a TGI [41] of 4.73 µM, a GI50 [42] of 0.984 µM and a TGI [42] of 64.2 µM. For the same compound, the GI50 [43] was 2 µM, the TGI [43] was 16.7 µM and the GI50 [44] was 0.0908 µM. It also gave a TGI [44] of 12.4 µM.
